The text below walks through data of patent US7875604B2, “Compounds that inhibit HIV particle formation” (University of Virginia Patent Foundation, priority 2004, dated 2011).

pIC50: −log10 of the molar value. Like-named read-outs stand apart in the source and are kept apart here.

Series [1] deals with T1, HIV-1 Rev (Human immunodeficiency virus type 1 group M subtype B, UniProt P04618).
T1 construct: expressed in transfected cells
As to the kind of experiment: cell-based. To be noted: for TI (TC50/IC50): Rev assay. As for the experimental part:
The eight compounds listed in Table 1 were also tested in an assay that measured HIV-1 Rev function. […] The reporter used for these assays is the Renilla Luciferase protein, which is an enzyme that produces detectable light when mixed with certain chemicals. For this assay, a cell line has been developed in which the production of the reporter by the cells requires the function of HIV-1 Rev. Therefore, if a drug candidate inhibits the function of Rev, it decreases the amount of the reporter produced by the cells. By using Renilla Luciferase as the reporter, the inhibition of Rev is easily detected as a decrease in the amount of light produced by the cells when mixed with the appropriate chemicals.
(§1) Compounds were tested in the Rev assay using the maximum high-test concentration possible based on the supplied stocks as shown in Table 3. Compounds were prepared at a 2× high-test concentration by combining drug stock with tissue culture media at a ratio of 5 μL of drug to 995 μL of media. This 2× high-test sample was subsequently serially diluted in tissue culture media using 1/2 log dilutions. This series of 2× concentrated drug was subsequently diluted 1:1 by combining with an equal volume of cells in media in the 96-well plates used for the assay.

For series [2], the system named is HIV particle formation in 5BD.1 cells. The experiment in a line: Six point dose response assay of HIV particle release (p24 ELISA) in 5BD.1 cells. It counts as cell-based, HIV-1. To be noted: for TI (TC50/IC50): TC50 MT4 cells / IC50 5BD.1 cells; for pIC50: six point dose response, p24 in 5BD.1 cells, Table 1. The text has this:
The present invention is directed to a safe quantitative in vitro high-throughput assay to screen library compounds for effects on Rev-dependent p24 production. Two cell lines derived from COS cells provide the means of determining whether a library compound has anti-Rev activity-5BD.1 and 2A.22. These cell lines constitutively express HIV-like particles that contain the HIV core proteins as well as HIV envelope protein. The non-infectious virions created by these cells are secreted into the media, where a simple p24 ELISA can quantitatively determine virion production. Production of these virus-like particles is totally dependent on the expression of the Rev protein (for the 5BD.1 cell line), which is also made in these cell lines, or independent of Rev protein expression (the 2A.22 cell line).
The cell line 5BD.1 was created by transfecting COS cells with the wild type HIV-1 structural and regulatory genes gag, gagpol, rev, and env. Each of these genes is necessary but not sufficient for producing infectious HIV virions. Non-infectious virions are produced in 5BD.1 cells via the same pathways as in CD4^+ cells. Inhibition of Rev with a library compound would therefore have the same effect on viral production in 5BD.1 cells as in CD4^+ cells.
Each of the 192 compounds was then subjected to 3 and 6 point dose response assays in 5BD.1 cells and toxicity testing in the MT-4 T cell line. The dose response assay was performed as follows
• 1. 5BD.1 cells were carried in 2 T175 flasks in medium (IMDM/10% FCS/0.2 mg/ml HygromycinB/1.5 mg/ml G418/0.05 mg/ml gentamycin). Cells were trypsinized and harvested from a 90% confluent flask. • 2. 20,000 cells per well were plated into rows A-G of 8 tissue culture treated clear 96-well plates in 135 μl per well of medium without G418 (assay medium). 135 μl of medium only was added to row H. • 3. The plates were placed into the incubator for one hour. • 4. Compounds were serially diluted 1:3 two times from 1 mM DMSO stocks in DMSO in 96 well polypropylene plates. 8 μl of the DMSO solutions were transferred to another plate and 72 μl of assay medium was added. • 5. 15 μl of each diluted compound was transferred to the cell plates in duplicate with the high (10 μM final concentration in rows A-B, 3 μM concentration in rows C-D, 1 μM concentration in rows E-F and DMSO only in rows G-H). • 6. The plates were then incubated overnight for 16 hours. • 7. In the morning of the next day the medium was removed by hand from all wells. • 8. 135 μl of fresh assay medium was added to each well followed by 15 μl of diluted compounds as described in step 5. • 9. The plates were then incubated for 24 hours and the medium was harvested. p24 ELISA Assay: • 10. Dilute primary antibody to 4 μg/ml in DPBS without calcium and magnesium, add 50 μl per well of a 96 well Maxisorp plate, incubate overnight at 4° C. • 11. Aspirate coating solution, block for 30-60 minutes with 200 μl ELISA buffer (4 mg/ml BSA, 0.01% Tween20 in DPBS without calcium and magnesium). • 12. Wash plates 2×. • 13. Add 50 μl of the supernatants from step 9 above. • 14. Add 15 μl of a 1:750 dilution of biotinylated secondary antibody in 40% lysis buffer/ELISA buffer. • 15. Incubate 2 hours at room temperature with shaking. • 16. Wash plates 3×. • 17. Add 50 μL/well of a 1:10,000 dilution of detection SA-HRP. Incubate at room temperature with shaking for 30 minutes. • 18. Wash plates 3×. Add 50 μL/well of TMB substrate solution to all wells and develop for approximately 15 minutes until blue. • 19. Stop the reaction with 50 μL/well 0.18M sulfuric acid. • 20. Read plate at 450 nm. Toxicity Assays:
The six point dose assay in 5BD.1 cells was used to calculate an IC50 for the compounds and data from the MT-4 toxicity assay allowed a TC50 to be calculated.
For orientation: ELISA stands for enzyme-linked immunosorbent assay.

Series [3] in a line: HIV-1 Rev assay toxicity/non-specificity readout (Firefly Luciferase). Format: cell-based. To be noted: human. As for the experimental part: The eight compounds listed in Table 1 were also tested in an assay that measured HIV-1 Rev function. The HIV-1 Rev assay is based upon the use of a reporter for detecting whether drug candidates are capable of inhibiting the function of the viral Rev protein. The reporter used for these assays is the Renilla Luciferase protein, which is an enzyme that produces detectable light when mixed with certain chemicals. For this assay, a cell line has been developed in which the production of the reporter by the cells requires the function of HIV-1 Rev. Therefore, if a drug candidate inhibits the function of Rev, it decreases the amount of the reporter produced by the cells. By using Renilla Luciferase as the reporter, the inhibition of Rev is easily detected as a decrease in the amount of light produced by the cells when mixed with the appropriate chemicals. Furthermore, the cell line for this assay has been engineered to use a second similar reporter (Firefly Luciferase) that detects whether drug candidates are toxic.
as §1, with “assay. Representative data for two of the compounds is also depicted in FIG. 5.” for “assay.”
Leptomycin B is a control compound known to inhibit Rev function.

Setting [4] is: 50% inhibition of Renilla Luciferase, 24 hours, HeLa reporter line, read-out: IC50.

T1 sequence (P04618 whole entry, looked up): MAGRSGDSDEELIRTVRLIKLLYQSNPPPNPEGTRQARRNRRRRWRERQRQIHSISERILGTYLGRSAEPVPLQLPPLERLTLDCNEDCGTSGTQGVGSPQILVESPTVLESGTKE

Broadly, the pIC50 is the IC50 on a negative log10 scale, so that one unit is a factor of ten. In the case of “2-chloro-N-(4-methylphenyl)-4-(trifluoromethyl)-1,3-thazole-5-carboxamide [Compound 91161]”, the pIC50 was 5.01 in series [1] (setting [4]) and 5.72 in series [2]. Also, the “TI (TC50/IC50)” value in series [1] is greater than 4.06; in series [2], 9.47.
`CCc1c(C(=O)Nc2ccccc2)c(C)nc2sc(C(N)=O)c(N)c12` [Compound 75168, 3-amino-4-ethyl-6-methyl-N˜5˜-phenylthieno[2,3-b]pyridine-2,5-dicarboxamide]: the pIC50 was 5.62 in series [1] (setting [4]) and 5.52 in series [2] (Human immunodeficiency virus 1). Further, the “TI (TC50/IC50)” value in series [1] is listed as 3.27; in series [2], greater than 33.3. Besides, the CC50 at 24 hours in series [3] came out at 7.91 µM.
The like results for `COc1ccc2cc3c(N)n[nH]c3nc2c1` [Compound 89246, 7-methoxy-1H-pyrazolo[3,4-b]quinolin-3-ylamine] were, in that order, 6.32, 6.05, 17.52, 22.22 and 8.41 µM.
For `CCc1c(C)nc2sc(C(N)=O)c(N)c2c1C` [Compound 103833, 3-amino-5-ethyl-4,6-dimethylthieno[2,3-b]pyridine-2-carboxamide], the results for the pIC50 in series [1] and in series [2] (Human immunodeficiency virus 1) were 5.97 and 6.05, respectively. In series [2], the “TI (TC50/IC50)” value is on record as 35.6. The CC50 at 24 hours in series [3] is greater than 37.6 µM.
Turning to `COc1ccc2nc(C(F)(F)F)c(C#N)c(N)c2c1` [Compound 104366, 4-amino-6-methoxy-2-(trifluoromethyl)-3-quinolinecarbonitrile], the values for the pIC50 in series [1] (setting [4]) and in series [2] (Human immunodeficiency virus 1) were 5.65 and 5.60, respectively. In addition, the figures for the “TI (TC50/IC50)” value in series [1] and in series [2] were 7.68 and 11.2, respectively. Besides, the CC50 at 24 hours in series [3] (50% inhibition of Firefly Luciferase (toxicity/non-specificity), 24 hours, read-out: TC50) came to 17.2 µM.
In the case of `CS(=O)(=O)c1ncc(-c2ccc(Br)cc2)cn1` [Compound 107129, -(4-bromophenyl)-2-(methylsulfonyl)pyrimidine], the negative-log IC50 (pIC50) in series [1] (setting [4]) is 5.13; in series [2] (Human immunodeficiency virus 1), 6.60. The “TI (TC50/IC50)” value in series [1] stood at 4.13; in series [2], 40.0. The same compound returned a CC50 at 24 hours in series [3] of 30.9 µM.
The like results for `COc1cccc(NC(=O)c2cc(Cl)nnc2Cl)c1` [Compound 107740, 3,6-dichloro-N-(3-methoxyphenyl)-4-pyridazinecarboxamide] were, in that order, 5.10, 5.31, 2.31, 10.2 and 18.5 µM.
Take `Fc1ccc(Nc2ncnc3ccccc23)cc1Cl` [Compound 109020, N-(3-chloro-4-fluorophenyl)-N-(4-quinazolinyl)amine]: the pIC50 in series [1] was 5.05; in series [2] (Human immunodeficiency virus 1), 5.52. Besides, the “TI (TC50/IC50)” value in series [1] is reported as greater than 4.54; in series [2] it was 33.3. The compound also had a CC50 at 24 hours in series [3] greater than 40.8 µM.
